The record followed here is paper PMC10804683, “Identification of the pyridoxal 5′‐phosphate allosteric site in human pyridox(am)ine 5′‐phosphate oxidase” (Protein Science : A Publication of the Protein Society, 2024).

Assay [1] deals with T1, apo-PNPO F48A/E50L/H248N/R258L (Homo sapiens, UniProt Q9NVS9, E50L/F48A/H248N/R258L).
T1 construct: a main form corresponding to the entire protein; made in house; host or cells: E. coli BL21(DE3)
T1 sequence (Q9NVS9 1-261 F48A/E50L/H248N/R258L): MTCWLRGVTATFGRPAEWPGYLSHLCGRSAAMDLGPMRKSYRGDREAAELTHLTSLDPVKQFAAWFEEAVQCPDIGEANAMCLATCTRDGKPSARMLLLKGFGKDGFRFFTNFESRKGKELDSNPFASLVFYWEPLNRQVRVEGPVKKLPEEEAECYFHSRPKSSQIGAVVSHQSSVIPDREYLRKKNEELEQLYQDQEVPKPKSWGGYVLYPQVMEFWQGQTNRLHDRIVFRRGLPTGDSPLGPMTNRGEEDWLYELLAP
Kind of assay: PLP binding by intrinsic fluorescence, apo quadruple variant. The conditions noted are these: excitation 280 nm, 100 nM enzyme. An excerpt: PLP binding to PNPO can be detected and quantitatively measured using differential scanning fluorimetry (DSF) and also by measuring FMN fluorescence changes. We had previously attributed DSF changes to PLP binding at the active site, while FMN fluorescence changes were attributed to PLP binding at the allosteric site (Barile et al., [2019], [2020]). Previous experiments carried out with the PNPO R161C variant, affecting a residue that is essential for substrate binding and catalysis (and therefore also for PLP binding at the active site), confirms that DSF measurements only report PLP binding at the active site (Barile et al., [2021]; Table 1). […] We expected to observe no FMN fluorescence changes upon titration of the variants with PLP. However, this was not the case, and the dissociation constant values obtained by observing the FMN fluorescence emission were only up to threefold larger in the variants with respect to wild type PNPO (Figure 3). […] To check the second possibility, we measured intrinsic fluorescence changes of wild type and variant apo‐forms (i.e., without FMN) upon PLP titration. […]
Analyses of PLP binding, based on FMN fluorescence increase observed upon binding of PLP to PNPO, were performed as described in Barile et al. ([2020]). […] Emission spectra were recorded from […], with excitation and emission slits set at 3 and 5 nm, respectively. […]

Assay [2] has as its target T2, human PNPO F48A/E50L/R258L variant (Homo sapiens, UniProt Q9NVS9, E50L/F48A/R258L).
T2 construct: a main form corresponding to the entire protein; made in house; host or cells: E. coli BL21(DE3)
T2 sequence (Q9NVS9 1-261 F48A/E50L/R258L): T1 sequence (Q9NVS9 1-261 F48A/E50L/H248N/R258L) with N248H
Kind of assay: PLP inhibition kinetics of PNP oxidation, triple variant. In kind it is biochemical. The conditions noted are these: Na-HEPES pH 7.6, 2 μM enzyme, PLP 0–16 μM. The method, then:
This is a general inhibition mechanism that takes into account the possibility of PLP binding to both the active and allosteric sites. PLP binding at the active site gives a complete, competitive inhibition, whereas PLP binding at the allosteric site yields a substrate‐enzyme‐PLP ternary complex that is still catalytically active, although k CAT is reduced by a coefficient whose value is around 0.15. A thorough inhibition kinetic characterization was carried out with the wild type, F48A, F48A/E50L/R258L, and F48A/E50L/H248N/R258L PNPO forms, so as to evaluate the effect of the variations on the allosteric properties of the enzyme. The initial velocity of PNP conversion into PLP was measured in Na‐HEPES buffer (in which PLP is allowed to accumulate) by varying substrate concentration at different, fixed exogenous PLP concentrations, using 2 μM enzyme. A series of saturation curves were obtained that were used to fit the Michaelis–Menten equation (Figure 5), acquiring apparent V MAX and K M values as a function of PLP concentration. […]
FIGURE 5 Characterization of PLP inhibition. Upper panels: The initial velocity of the reaction was measured with 2 μM wild type (a), and the F48A (b), F48A/E50L/R258L (c), and F48A/E50L/H248N/R258L (d) PNPO variants, varying PNP concentration while keeping exogenous PLP fixed at different concentrations (0, 0.25, 0.5, 1, 2, 4, 8, and 16 μM). […]

Changes are numbered by the printed parent chain. “Also recorded” adds a separate entry of the source.

In the case of `Cc1ncc(COP(=O)(O)O)c(C=O)c1O` [PLP, pyridoxal 5′‐phosphate], in assay [1], the “Apo-enzyme PLP binding KD^FLUO” value is recorded as “no change in fluorescence was observed; also recorded: No binding”. Besides, in assay [2], the “type of inhibition of PNP oxidation by PLP” value is given as “pure competitive inhibition”.
